In patent publication US20130303509A1, “NAMPT INHIBITORS” (AbbVie Inc., priority 2012, published 2013):

Tested on: PC3 cells
Experiment: NAMPT Cell Proliferation Assay
Assay type: cell-based
Conditions: Homo sapiens, PC-3, 120 h, 5 days incubation, cell viability by Cell Titer Glo
Summary of the method: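 Seeded at 500 cells/well in RPMI with 10% heat-inactivated FBS and left to attach overnight at 37° C, 5% CO2. Compounds were added as 10-fold dilutions […] for 5 days, then viability was read by CellTiter-Glo. IC50s came from sigmoidal fits of percent inhibition.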

Row | IC50 [nM] | SMILES
1 | > 10000 | CC(C)(O)C(=O)N1CCC(c2ccc(NC(=O)C3CN(c4cccnc4C#N)C3)cc2)CC1 [Example 2, 1-(2-cyanopyridin-3-yl)-N-{4-[1-(2-hydroxy-2-methylpropanoyl)piperidin-4-yl]phenyl}azetidine-3-carboxamide]
2 | 117 | CC(C)CC(=O)N1CCC(S(=O)(=O)c2ccc(NC(=O)C3CN(c4cccnn4)C3)cc2)CC1 [Example 597, N-(4-{[1-(3-methylbutanoyl)piperidin-4-yl]sulfonyl}phenyl)-1-(pyridazin-3-yl)azetidine-3-carboxamide]
3 | 729 | O=C(NC1CN(c2cccnn2)C1)c1ccc(C2CCN(C(=O)C3CC3)CC2)s1 [Example 856, 5-[1-(cyclopropylcarbonyl)piperidin-4-yl]-N-[1-(pyridazin-3-yl)azetidin-3-yl]thiophene-2-carboxamide]
4 | 0.64 | CCCC(=O)N1CCC(c2ccc(NC(=O)C3CN(c4cccnc4)C3)cc2)CC1 [Example 134, N-[4-(1-butanoylpiperidin-4-yl)phenyl]-1-(pyridin-3-yl)azetidine-3-carboxamide]
5 | 14.2 | CC(C)(C)c1ccc(C(=O)N2CCC(c3ccc(NC(=O)[C@H]4CCN(c5cccnn5)C4)cc3)CC2)cc1 [Example 708, (3S)-N-{4-[1-(4-tert-butylbenzoyl)piperidin-4-yl]phenyl}-1-(pyridazin-3-yl)pyrrolidine-3-carboxamide]
6 | 1.17 | O=C(Nc1ccc(C2CN(C(=O)c3ccccc3F)C2)cc1)[C@H]1CCN(c2cccnn2)C1 [Example 785, (3S)—N-{4-[1-(2-fluorobenzoyl)azetidin-3-yl]phenyl}-1-(pyridazin-3-yl)pyrrolidine-3-carboxamide]
7 | 3.35 | O=C(Nc1ccc(C2CCN(C(=O)CC3CCCC3)CC2)cc1)C1CN(c2cccnn2)C1 [Example 397, N-{4-[1-(cyclopentylacetyl)piperidin-4-yl]phenyl}-1-(pyridazin-3-yl)azetidine-3-carboxamide]
8 | 6.35 | Cc1ccc(C(=O)N2CCC(c3ccc(NC(=O)C4CN(c5cccnn5)C4)cc3)CC2)cn1 [Example 434, N-(4-{1-[(6-methylpyridin-3-yl)carbonyl]piperidin-4-yl}phenyl)-1-(pyridazin-3-yl)azetidine-3-carboxamide]
9 | 6.73 | O=C(Nc1ccc(O[C@@H]2CCN(C(=O)c3ccc(F)c(F)c3)C2)cc1)C1CN(c2cccnn2)C1 [Example 493, N-(4-{[(3R)-1-(3,4-difluorobenzoyl)pyrrolidin-3-yl]oxy}phenyl)-1-(pyridazin-3-yl)azetidine-3-carboxamide]
10 | 7610 | COc1ccncc1N1CC(C(=O)Nc2ccc(C3CCN(C(=O)C(C)(C)O)CC3)cc2)C1 [Example 96, N-{4-[1-(2-hydroxy-2-methylpropanoyl)piperidin-4-yl]phenyl}-1-(4-methoxypyridin-3-yl)azetidine-3-carboxamide]
11 | 1.41 | O=C(Nc1ccc(C2CCN(C(=O)CC3CCOCC3)CC2)cc1)C1CN(c2cccnc2)C1 [Example 25, 1-(pyridin-3-yl)-N-{4-[1-(tetrahydro-2H-pyran-4-ylacetyl)piperidin-4-yl]phenyl}azetidine-3-carboxamide]
12 | 79.1 | O=C(Nc1ccc(OC2CCN(C(=O)[C@@H]3CCCO3)CC2)cc1)[C@H]1CCN(c2cccnc2)C1 [Example 13, (3S)-1-(pyridin-3-yl)-N-[4-({1-[(2S)-tetrahydrofuran-2-ylcarbonyl]piperidin-4-yl}oxy)phenyl]pyrrolidine-3-carboxamide]
13 | 2.17 | CCC(C)(C)C(=O)N1CCC(Oc2ccc(NC(=O)C3CN(c4cccnc4)C3)cc2)CC1 [Example 40, N-(4-{[1-(2,2-dimethylbutanoyl)piperidin-4-yl]oxy}phenyl)-1-(pyridin-3-yl)azetidine-3-carboxamide]
14 | 1900 | CC(C)(C)C(=O)N1CCC(c2ccc(NC(=O)C3CCN(c4cccnn4)CC3)cc2)CC1 [Example 625, N-{4-[1-(2,2-dimethylpropanoyl)piperidin-4-yl]phenyl}-1-(pyridazin-3-yl)piperidine-4-carboxamide]
15 | 5.97 | O=C(Nc1ccc(OC2CCN(C(=O)c3ccccc3F)CC2)cc1)C1CN(c2cccnn2)C1 [Example 228, N-(4-{[1-(2-fluorobenzoyl)piperidin-4-yl]oxy}phenyl)-1-(pyridazin-3-yl)azetidine-3-carboxamide]
16 | 0.88 | Cc1ccc(F)cc1C(=O)N1CCC(c2ccc(NC(=O)C3CN(c4cccnn4)C3)cc2)CC1 [Example 388, N-{4-[1-(5-fluoro-2-methylbenzoyl)piperidin-4-yl]phenyl}-1-(pyridazin-3-yl)azetidine-3-carboxamide]
17 | 70.8 | CC(C)(C)OC(=O)N1CCC(Oc2ccc(NC(=O)[C@H]3CCN(c4cccnc4)C3)cc2)CC1 [Example 8, tert-butyl 4-[4-({[(3S)-1-(pyridin-3-yl)pyrrolidin-3-yl]carbonyl}amino)phenoxy]piperidine-1-carboxylate]
18 | 82.4 | O=C(Nc1ccc(OC2CCN(C(=O)C3CCCO3)CC2)cc1)C1CN(c2ccnnc2)C1 (centres unmarked) [Example 302, 1-(pyridazin-4-yl)-N-(4-{[1-(tetrahydrofuran-2-ylcarbonyl)piperidin-4-yl]oxy}phenyl)azetidine-3-carboxamide]

Row | IC50 [nM] | SMILES
19 | 0.95 | CC(C)C(=O)N1CCC(c2ccc(NC(=O)C3CN(c4cccnn4)C3)cc2)CC1 [Example 147, N-{4-[1-(2-methylpropanoyl)piperidin-4-yl]phenyl}-1-(pyridazin-3-yl)azetidine-3-carboxamide]
20 | 33.2 | Cc1ccc(C(=O)N2CCC(Oc3ccc(NC(=O)C4CN(c5ccnnc5)C4)cc3)CC2)s1 [Example 304, N-[4-({1-[(5-methylthiophen-2-yl)carbonyl]piperidin-4-yl}oxy)phenyl]-1-(pyridazin-4-yl)azetidine-3-carboxamide]
21 | 71.5 | O=C(Nc1ccc(OC2CCN(C(=O)c3cccc(Cl)c3)CC2)cc1)C1CN(c2ccnnc2)C1 [Example 295, N-(4-{[1-(3-chlorobenzoyl)piperidin-4-yl]oxy}phenyl)-1-(pyridazin-4-yl)azetidine-3-carboxamide]
22 | 9.51 | O=C(Nc1ccc(OC2CCN(C(=O)CC(F)(F)F)CC2)cc1)C1CN(c2cccnn2)C1 [Example 252, 1-(pyridazin-3-yl)-N-(4-{[1-(3,3,3-trifluoropropanoyl)piperidin-4-yl]oxy}phenyl)azetidine-3-carboxamide]
23 | 84.6 | O=C(Nc1ccc(OC2CCN(C(=O)c3cc(F)cc(F)c3)CC2)cc1)C1CN(c2ccnnc2)C1 [Example 299, N-(4-{[1-(3,5-difluorobenzoyl)piperidin-4-yl]oxy}phenyl)-1-(pyridazin-4-yl)azetidine-3-carboxamide]
24 | 1.38 | C=CCC(=O)N1CCC(c2ccc(NC(=O)C3CN(c4cccnn4)C3)cc2)CC1 [Example 330, N-{4-[1-(but-3-enoyl)piperidin-4-yl]phenyl}-1-(pyridazin-3-yl)azetidine-3-carboxamide]
25 | 208 | CC(C)C(=O)N1CCC(S(=O)(=O)c2ccc(NC(=O)C3CN(c4cccnn4)C3)cc2)CC1 [Example 598, N-(4-{[1-(2-methylpropanoyl)piperidin-4-yl]sulfonyl}phenyl)-1-(pyridazin-3-yl)azetidine-3-carboxamide]
26 | 8.53 | CC(C)CCC(=O)N1CCC(c2ccc(NC(=O)[C@H]3CCN(c4cccnn4)C3)cc2)CC1 [Example 671, (3S)-N-{4-[1-(4-methylpentanoyl)piperidin-4-yl]phenyl}-1-(pyridazin-3-yl)pyrrolidine-3-carboxamide]
27 | 3.55 | CC(C)C(C)C(=O)N1CCC(c2ccc(NC(=O)[C@H]3CCN(c4cccnn4)C3)cc2)CC1 (stereo partly drawn) [Example 680, (3S)-N-{4-[1-(2,3-dimethylbutanoyl)piperidin-4-yl]phenyl}-1-(pyridazin-3-yl)pyrrolidine-3-carboxamide]
28 | 10.2 | O=C(Nc1ccc(C2CCN(C(=O)CC(F)(F)F)CC2)cc1)C1CN(c2ccnnc2)C1 [Example 557, 1-(pyridazin-4-yl)-N-{4-[1-(3,3,3-trifluoropropanoyl)piperidin-4-yl]phenyl}azetidine-3-carboxamide]
29 | 0.31 | O=C(Nc1ccc(C2CCN(C(=O)CC3CCCC3)CC2)cc1)C1CN(c2cccnc2)C1 [Example 101, N-{4-[1-(cyclopentylacetyl)piperidin-4-yl]phenyl}-1-(pyridin-3-yl)azetidine-3-carboxamide]
30 | 6.32 | O=C(Nc1ccc(C2CCN(C(=O)Cc3ccc(Cl)c(Cl)c3)CC2)cc1)C1CN(c2cccnn2)C1 [Example 374, N-(4-{1-[(3,4-dichlorophenyl)acetyl]piperidin-4-yl}phenyl)-1-(pyridazin-3-yl)azetidine-3-carboxamide]
31 | 66.4 | O=C(Nc1ccc(OC2CCN(C(=O)c3cccc(F)c3)CC2)cc1)[C@H]1CCN(c2cccnn2)C1 [Example 798, (3S)-N-(4-{[1-(3-fluorobenzoyl)piperidin-4-yl]oxy}phenyl)-1-(pyridazin-3-yl)pyrrolidine-3-carboxamide]
32 | 1.47 | Cc1cccc(C(=O)N2CCC(c3ccc(NC(=O)C4CN(c5cccnn5)C4)cc3)CC2)c1C [Example 357, N-{4-[1-(2,3-dimethylbenzoyl)piperidin-4-yl]phenyl}-1-(pyridazin-3-yl)azetidine-3-carboxamide]
33 | 8 | CCOCC(=O)N1CCC(c2ccc(NC(=O)C3CN(c4cccnn4)C3)cc2)CC1 [Example 432, N-{4-[1-(ethoxyacetyl)piperidin-4-yl]phenyl}-1-(pyridazin-3-yl)azetidine-3-carboxamide]
34 | 73.7 | CC(C)(C)C(=O)N1CC[C@H](Oc2ccc(NC(=O)[C@H]3CCN(c4cccnn4)C3)cc2)C1 [Example 827, (3S)—N-(4-{[(3S)-1-(2,2-dimethylpropanoyl)pyrrolidin-3-yl]oxy}phenyl)-1-(pyridazin-3-yl)pyrrolidine-3-carboxamide]
35 | 173 | CCC(C)CC(=O)N1CCC(c2ccc(NC(=O)C3CN(c4cccnc4C)C3)cc2)CC1 (centres unmarked) [Example 160, N-{4-[1-(3-methylpentanoyl)piperidin-4-yl]phenyl}-1-(2-methylpyridin-3-yl)azetidine-3-carboxamide]
